The record followed here is US9040714B2 (MannKind Corporation, priority 2010, dated 2015).

pEC50: −log10 of the molar value. Where a name gives a salt, the structure may show the parent alone. Where only a bound is given, the exact number is not on record here.

In the first test the test system is IRE-1α-mediated XBP-1 splicing in human myeloma MM.1s cells. As to the kind of experiment: Cellular EC50: endogenous XBP-1 splicing in myeloma cells by RT-PCR (DTT stress). Conditions: MM1.S, average cellular EC50, XBP-1 splicing in myeloma cells, read-out: EC50_av. It is filed as cell-based. Here is the method: Human myeloma MM.1s cells are incubated with a compound for 1.25 hours before stressing the cells with 2 mM dithiothreitol (DTT). After an additional 45 minutes (2 hours total) with compound and DTT, the cells are harvested with TRIZOL® (a mono-phasic solution of phenol and guanidine isothiocyanate), and total RNA is prepared as directed by the manufacturer (Invitrogen). Human XBP-1 is amplified by RT-PCR with the following primers, which flank the 26 base unconventional intron excised by IRE-1α:
RT-PCR of unstressed (U) cells then generates the upper band. When cells are stressed (S) with the endoplasmic reticulum (ER) stressing agent DTT, IRE-1α is activated due to accumulating unfolded protein and the resulting RT-PCR, product is 26 base pairs shorter.
Compounds which pass specificity assays are assayed for cellular EC50 using endogenous XBP-1 splicing in myeloma cells. XBP-1 is regulated through the excision of a 26 nucleotide intron from the XBP-1 mRNA by the highly specific endoribonuclease activity of IRE-1α. […] This splicing event is used to measure IRE-1α activity on XBP-1 mRNA in cells and tissues.
Briefly, compounds are incubated in the presence or absence of an ER stress agent (e.g., DTT), and the ratio of XBP-1u (unspliced) to XBP-1 s (spliced) is quantified by RT-PCR. The ED50 is determined as the 50% XBP-1s to total XPB-1 levels.
Consider `O=Cc1c(O)ccc2nc(-c3cccc(C(=O)N4CCCC4)c3)ccc12`, for which the pEC50 was less than 5.00.

On to `CC1CCN(C(=O)c2ccc(-c3ccc4c(C=O)c(O)ccc4n3)cc2)CC1` [Compound 47], for which the pEC50 is less than 5.00.

For the molecule `O=Cc1c(O)ccc2nc(-c3ccc(C(=O)N4CCCC4)cc3)ccc12` [Compound 48], the pEC50 was more than 5.00.

Regarding `CC(=O)NC1CCN(c2ccc3c(C=O)c(O)ccc3n2)C1` (centres unmarked) [Compound 51], the pEC50 is more than 5.00. On the same count and under the same terms, then `CC1CCN(C(=O)c2ccc(-c3nc4ccc(O)c(C=O)c4s3)cc2)CC1` [Compound 57], with less than 5.00; and `COC(=O)c1ccc(-c2nc3ccc(O)c(C=O)c3[nH]2)cc1` [Compound 59], with less than 5.00. Still for that read-out and setting: then `O=Cc1c(O)ccc2nc(-c3ccc(C(=O)NCCN4CCOCC4)cc3)[nH]c12` [Compound 60], with less than 5.00; and `Cc1c(Br)c(=O)oc2c(C=O)c(O)ccc12` [Example 1], with more than 5.00; and `Cc1c(-c2ccc(C(=O)N3CCN(C)CC3)cc2)c(=O)oc2c(C=O)c(O)ccc12` [Example 2], with more than 5.00. Consider `CCN(CC)CCc1c(C)c2ccc(O)c(C=O)c2oc1=O` [Example 4], for which the pEC50 was less than 5.00. On the same count and under the same terms, then `Cc1c(-c2cccc(C(=O)N3CCOCC3)c2)c(=O)oc2c(C=O)c(O)ccc12` [Example 13], with more than 5.00; and `Cc1c(CCC(=O)N2CCN(C)CC2)c(=O)oc2c(C=O)c(O)ccc12` [Example 15], with more than 5.00.

With `Cc1c(-c2ccc(C(=O)N3CCC(C)CC3)cc2)c(=O)oc2c(C=O)c(O)ccc12` [Example 19], the pEC50 is more than 5.00. As for `Cc1cc(=O)oc2c(C=O)c(O)c(F)cc12` [Example 23, hydrochloride], the pEC50 is more than 5.00. For `O=Cc1c(O)ccc2nc(-c3cccc(C(=O)N4CCOCC4)c3)ccc12` [Example 43], the pEC50 is more than 5.00. Still for that read-out and setting: with `CN1CCN(C2CCN(c3nc4ccc(O)c(C=O)c4s3)C2)CC1` (centres unmarked) [Example 54] the figure was less than 5.00; with `Cc1c(CCC(=O)N2CCOCC2)c(=O)oc2c(C=O)c(O)ccc12` [Example 69], more than 5.00. Regarding `Cc1oc2c(C=O)c(O)ccc2c(=O)c1CCC(=O)N1CCN(C)CC1` [Example 88], the pEC50 is less than 5.00. On the same count and under the same terms, with `COc1cc2c(=O)c(CCC(=O)NCCN3CCOCC3)c(C)oc2c(C=O)c1O` [Example 93] the figure was less than 5.00; with `COc1cc2c(=O)c(CCC(=O)N3CCN(C)CC3)c(C)oc2c(C=O)c1O` [Example 94], less than 5.00; with `COCc1cc(=O)oc2c(C=O)c(O)cc(OC)c12` [Example 122], more than 5.00. The same measure, in the same setting: with `COCCc1c(C)c2c(O)cc(O)c(C=O)c2oc1=O` [Example 123] the figure was more than 5.00; with `COCCc1c(C)c2c(OC)cc(O)c(C=O)c2oc1=O` [Example 124], more than 5.00; with `COCCc1c(C)c2cc(OC)c(O)c(C=O)c2oc1=O` [Example 125], more than 5.00.

Take `C=CCc1c(C)c2c(OC)cc(O)c(C=O)c2oc1=O` [Example 126]: the pEC50 was more than 5.00.

In the case of `COc1cc(O)c(C=O)c2oc(=O)c(C)c(CN3CCOCC3)c12` [Example 134], the pEC50 is more than 5.00. For `COc1cc(O)c(C=O)c2oc(=O)c(C)c(CN(C)C)c12` [Example 135], the pEC50 is more than 5.00. The same measure, in the same setting: with `CCOC(=O)CCc1c(C)c2cc(N(C)C(C)=O)c(O)c(C=O)c2oc1=O` [Example 144] the figure was less than 5.00. For the molecule `COCCOCCc1c(C)c2c(OC)cc(O)c(C=O)c2oc1=O` [Example 145], the pEC50 is more than 5.00. The same measure, in the same setting: then `CCOC(=O)Cc1c(C)c2c(OCCOC)cc(O)c(C=O)c2oc1=O` [Example 158], with more than 5.00.

Regarding `COCCNC(=O)Cc1c(C)c2c(OCCOC)cc(O)c(C=O)c2oc1=O` [Example 159], the pEC50 is more than 5.00. The same measure, in the same setting: with `COCCOc1cc(O)c(C=O)c2oc(=O)c(CC(=O)N3CCOCC3)c(C)c12` [Example 160] the figure was more than 5.00; with `COCCOc1cc(O)c(C=O)c2oc(=O)c(CC(=O)N3CCN(C)CC3)c(C)c12` [Example 161], more than 5.00; with `CCNC(=O)Cc1c(C)c2c(OCCOC)cc(O)c(C=O)c2oc1=O` [Example 162], more than 5.00. As to `COCCOc1cc(O)c(C=O)c2oc(=O)c(CC(=O)NCCN3CCOCC3)c(C)c12` [Example 163], the pEC50 was more than 5.00. Same read-out and setting: then `COCCOc1cc(O)c(C=O)c2oc(=O)c(CC(=O)NCCN(C)C)c(C)c12` [Example 164], with less than 5.00. For the molecule `COCCOc1cc(O)c(C=O)c2oc(=O)c(C)c(C)c12` [Example 165], the pEC50 was more than 5.00. On the same count and under the same terms, then `COc1cc2c(C)c(CC(=O)N3CCOCC3)c(=O)oc2c(C=O)c1O` [Example 167], with more than 5.00. Take `COc1cc(O)c(C=O)c2oc(=O)c(CC(=O)N3CCN(C)CC3)c(C)c12` [Example 178]: the pEC50 is more than 5.00. Still for that read-out and setting: then `CCNC(=O)CCc1c(C)c2cc(OCCOC)c(O)c(C=O)c2oc1=O` [Example 183], with more than 5.00; and `COCCOc1cc2c(C)c(CC(=O)NCCN3CCOCC3)c(=O)oc2c(C=O)c1O` [Example 187], with more than 5.00; and `COCCOc1cc2c(C)c(CC(=O)N3CCOCC3)c(=O)oc2c(C=O)c1O` [Example 188], with more than 5.00. On the same count and under the same terms, with `COCCOc1cc2c(C)c(CC(=O)N3CCN(C)CC3)c(=O)oc2c(C=O)c1O` [Example 189] the figure was more than 5.00; with `COCCNC(=O)Cc1c(C)c2cc(OCCOC)c(O)c(C=O)c2oc1=O` [Example 190], more than 5.00; with `CCNC(=O)Cc1c(C)c2cc(OCCOC)c(O)c(C=O)c2oc1=O` [Example 191], more than 5.00. As for `COc1cc(O)c(C=O)c2oc(=O)c(CCC(=O)NCCN(C)C)c(C)c12` [Example 195], the pEC50 is more than 5.00.

Regarding `COCCNC(=O)CCc1c(C)c2cc(OCCN3CCOCC3)c(O)c(C=O)c2oc1=O` [Example 202], the pEC50 is less than 5.00. Same read-out and setting: then `Cc1c(C)c2cc(OCCN3CCOCC3)c(O)c(C=O)c2oc1=O` [Example 203], with more than 5.00; and `CCNC(=O)CCc1c(C)c2cc(OCCN3CCOCC3)c(O)c(C=O)c2oc1=O` [Example 204], with less than 5.00.

`COCCNC(=O)Cc1c(C)c2cc(OCCN3CCOCC3)c(O)c(C=O)c2oc1=O` [Example 205]: the pEC50 is 5.00. On the same count and under the same terms, with `Cc1c(CC(=O)N2CCOCC2)c(=O)oc2c(C=O)c(O)c(OCCN3CCOCC3)cc12` [Example 206] the figure was 5.00.

On to `COc1cc2c(=O)c(CC(=O)N3CCOCC3)c(C)oc2c(C=O)c1O` [Example 207], for which the pEC50 was less than 5.00. Consider `COc1cc2c(=O)c(CC(=O)N3CCN(C)CC3)c(C)oc2c(C=O)c1O` [Example 208], for which the pEC50 was less than 5.00. With `CCNC(=O)Cc1c(C)oc2c(C=O)c(O)c(OC)cc2c1=O` [Example 209], the pEC50 is more than 5.00. Same read-out and setting: then `COc1cc2c(=O)c(CC(=O)NCCN3CCOCC3)c(C)oc2c(C=O)c1O` [Example 210], with less than 5.00. On the same count and under the same terms, with `COc1cc2c(=O)c(CC(=O)NCCN(C)C)c(C)oc2c(C=O)c1O` [Example 211] the figure was less than 5.00; with `COCCNC(=O)CCc1c(C)oc2c(C=O)c(O)c(OC)cc2c1=O` [Example 212], less than 5.00.

On to `CCNC(=O)CCc1c(C)oc2c(C=O)c(O)c(OC)cc2c1=O` [Example 213], for which the pEC50 was less than 5.00.

Consider `COc1cc2c(=O)c(CCC(=O)NCCN(C)C)c(C)oc2c(C=O)c1O` [Example 214], for which the pEC50 is less than 5.00. Same read-out and setting: with `COCCNC(=O)CCc1c(C)oc2c(C=O)c(O)ccc2c1=O` [Example 215] the figure was more than 5.00; with `Cc1oc2c(C=O)c(O)ccc2c(=O)c1CCC(=O)N1CCOCC1` [Example 216], more than 5.00; with `CCNC(=O)CCc1c(C)oc2c(C=O)c(O)ccc2c1=O` [Example 217], more than 5.00. On the same count and under the same terms, with `Cc1oc2c(C=O)c(O)ccc2c(=O)c1CCC(=O)NCCN(C)C` [Example 218] the figure was less than 5.00; with `Cc1oc2c(C=O)c(O)ccc2c(=O)c1CCC(=O)NCCN1CCOCC1` [Example 219], less than 5.00. Same read-out and setting: then `COCCNC(=O)Cc1c(C)oc2c(C=O)c(O)ccc2c1=O` [Example 220], with more than 5.00. Regarding `Cc1oc2c(C=O)c(O)ccc2c(=O)c1CC(=O)N1CCOCC1` [Example 221], the pEC50 was less than 5.00.

Staying with this test, now noted: MM1.S, read-out: EC50_av.
For the molecule `O=Cc1c(O)ccc2nc(N3CCC(NC(=O)CN4CCOCC4)C3)ccc12` (centres unmarked) [Compound 50], the pEC50 was more than 5.00. Still for that read-out and setting: with `O=Cc1c(O)ccc2nc(-c3ccc(C(=O)O)cc3)[nH]c12` [Compound 58] the figure was less than 5.00; with `CN1CCN(C(=O)c2ccc(-c3nc4ccc(O)c(C=O)c4[nH]3)cc2)CC1` [Compound 62], less than 5.00. Same read-out and setting: with `COc1cc2c(C)c(Br)c(=O)oc2c(C=O)c1O` [Example 6] the figure was more than 5.00.

With `O=Cc1c(O)ccc2cc(-c3ccc(Br)cc3)c(=O)oc12` [Example 7], the pEC50 is less than 5.00. For `Cc1c(Br)c(=O)oc2c(C=O)c(O)c(F)cc12` [Example 9], the pEC50 was more than 5.00. Same read-out and setting: with `Cc1c(-c2ccc(C(=O)N3CCCC3)cc2)c(=O)oc2c(C=O)c(O)ccc12` [Example 18] the figure was more than 5.00; with `Cc1c(-c2cccc(C(=O)N3CCCC3)c2)c(=O)oc2c(C=O)c(O)ccc12` [Example 21], less than 5.00.
